Measured values as given in US20240043427A1 (Gilead Sciences, Inc., priority 2020, published 2024).

The compounds below were run against CD73 (Homo sapiens (Human), UniProt P21589). Settings: 1 mM NaH2PO4 in enzyme buffer, CD73 0.3 nM, AMP 15 uM.
Type: biochemical

Chain of CD73 (P21589 27-574): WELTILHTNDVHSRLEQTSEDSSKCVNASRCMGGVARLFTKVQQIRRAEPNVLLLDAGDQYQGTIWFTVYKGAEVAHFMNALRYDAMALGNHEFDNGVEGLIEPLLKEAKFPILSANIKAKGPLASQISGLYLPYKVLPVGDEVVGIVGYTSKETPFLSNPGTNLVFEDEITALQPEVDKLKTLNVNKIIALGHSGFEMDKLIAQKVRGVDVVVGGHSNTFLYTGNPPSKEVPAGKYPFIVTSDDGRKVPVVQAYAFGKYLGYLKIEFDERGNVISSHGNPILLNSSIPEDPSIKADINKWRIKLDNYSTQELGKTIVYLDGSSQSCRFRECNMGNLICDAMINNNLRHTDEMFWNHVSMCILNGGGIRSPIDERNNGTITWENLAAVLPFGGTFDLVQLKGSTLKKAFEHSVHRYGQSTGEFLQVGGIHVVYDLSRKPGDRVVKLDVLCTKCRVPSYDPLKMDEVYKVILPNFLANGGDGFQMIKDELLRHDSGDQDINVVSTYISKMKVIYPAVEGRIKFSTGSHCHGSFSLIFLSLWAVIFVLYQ

SMILES	IC50
O=c1[nH]cc(-c2cc([C@H]3C[C@@H]3c3ccc4c(c3)OC(F)(F)O4)c3ncc(F)n3n2)c(=O)[nH]1 (racemic) [Example 278, 5-(8-((1S,2S)-2-(2,2-difluorobenzo[d][1,3]dioxol-5-yl)cyclopropyl)-3-fluoroimidazo[1,2-b]pyridazin-6-yl)pyrimidine-2,4(1H,3H)-dione]	3.69 nM
O=c1[nH]cc(-c2cc([C@H]3C[C@@H]3c3ccc(OC(F)(F)F)cc3F)c3nccn3n2)c(=O)[nH]1 (racemic) [Example 280, 5-(8-((1S,2S)-2-(2-fluoro-4-(trifluoromethoxy)phenyl)cyclopropyl)imidazo[1,2-b]pyridazin-6-yl)pyrimidine-2,4(1H,3H)-dione]	5.97 nM
COC(=O)c1cccc([C@H]2C[C@@H]2c2cc(-c3c[nH]c(=O)[nH]c3=O)nn3ccnc23)c1 (racemic) [Example 282, methyl 3-((1S,2S)-2-(6-(2,4-dioxo-1,2,3,4-tetrahydropyrimidin-5-yl)imidazo[1,2-b]pyridazin-8-yl)cyclopropyl)benzoate]	1.81 nM
NC(=O)c1cccc([C@H]2C[C@@H]2c2cc(-c3c[nH]c(=O)[nH]c3=O)nn3ccnc23)c1 (racemic) [Example 284, 3-((1S,2S)-2-(6-(2,4-dioxo-1,2,3,4-tetrahydropyrimidin-5-yl)imidazo[1,2-b]pyridazin-8-yl)cyclopropyl)benzamide]	1.07 nM
CN(C)C(=O)c1cccc([C@H]2C[C@@H]2c2cc(-c3c[nH]c(=O)[nH]c3=O)nn3ccnc23)c1 (racemic) [Example 287, 3-((1S,2S)-2-(6-(2,4-dioxo-1,2,3,4-tetrahydropyrimidin-5-yl)imidazo[1,2-b]pyridazin-8-yl)cyclopropyl)-N,N-dimethylbenzamide]	3.9 nM
O=C(c1ccc([C@H]2C[C@@H]2c2cc(-c3c[nH]c(=O)[nH]c3=O)nn3ccnc23)cc1)N1CCC1 (racemic) [Example 289, 5-(8-((1S,2S)-2-(4-(azetidine-1-carbonyl)phenyl)cyclopropyl)imidazo[1,2-b]pyridazin-6-yl)pyrimidine-2,4(1H,3H)-dione]	2.27 nM
CC1CN(C(=O)c2ccc([C@H]3C[C@@H]3c3cc(-c4c[nH]c(=O)[nH]c4=O)nn4ccnc34)cc2)C1 (racemic) [Example 290, 5-(8-((1S,2S)-2-(4-(3-methylazetidine-1-carbonyl)phenyl)cyclopropyl)imidazo[1,2-b]pyridazin-6-yl)pyrimidine-2,4(1H,3H)-dione]	3.46 nM
O=C(c1ccc([C@H]2C[C@@H]2c2cc(-c3c[nH]c(=O)[nH]c3=O)nn3ccnc23)cc1)N1CC(F)(F)C1 (racemic) [Example 292, 5-(8-((1S,2S)-2-(4-(3,3-difluoroazetidine-1-carbonyl)phenyl)cyclopropyl)imidazo[1,2-b]pyridazin-6-yl)pyrimidine-2,4(1H,3H)-dione]	2.08 nM
CC1CN(C(=O)c2cccc([C@H]3C[C@@H]3c3cc(-c4c[nH]c(=O)[nH]c4=O)nn4ccnc34)c2)C1 (racemic) [Example 295, 5-(8-((1S,2S)-2-(3-(3-methylazetidine-1-carbonyl)phenyl)cyclopropyl)imidazo[1,2-b]pyridazin-6-yl)pyrimidine-2,4(1H,3H)-dione]	1.92 nM
O=C(c1cccc([C@H]2C[C@@H]2c2cc(-c3c[nH]c(=O)[nH]c3=O)nn3ccnc23)c1)N1CC(C(F)(F)F)C1 (racemic) [Example 296, 5-(8-((1S,2S)-2-(3-(3-(trifluoromethyl)azetidine-1-carbonyl)phenyl)cyclopropyl)imidazo[1,2-b]pyridazin-6-yl)pyrimidine-2,4(1H,3H)-dione]	2.14 nM
O=C(c1ccc([C@H]2C[C@@H]2c2cc(-c3c[nH]c(=O)[nH]c3=O)nn3ccnc23)cc1)N1C[C@@H](F)[C@H](F)C1 (racemic) [Example 299, 5-(8-((1S,2S)-2-(4-((3R,4R)-3,4-difluoropyrrolidine-1-carbonyl)phenyl)cyclopropyl)imidazo[1,2-b]pyridazin-6-yl)pyrimidine-2,4(1H,3H)-dione]	7.85 nM
O=C(c1ccc([C@H]2C[C@@H]2c2cc(-c3c[nH]c(=O)[nH]c3=O)nn3ccnc23)cc1)N1CCC(F)(F)C1 (racemic) [Example 305, 5-(8-((1S,2S)-2-(4-(3,3-difluoropyrrolidine-1-carbonyl)phenyl)cyclopropyl)imidazo[1,2-b]pyridazin-6-yl)pyrimidine-2,4(1H,3H)-dione]	4.81 nM

Continued by falling IC50, values first:

IC50	SMILES
7.74 nM	O=C(c1ccc([C@H]2C[C@@H]2c2cc(-c3c[nH]c(=O)[nH]c3=O)nn3ccnc23)cc1)N1CC(F)(F)C(F)(F)C1 (racemic) [Example 303, 5-(8-((1S,2S)-2-(4-(3,3,4,4-tetrafluoropyrrolidine-1-carbonyl)phenyl)cyclopropyl)imidazo[1,2-b]pyridazin-6-yl)pyrimidine-2,4(1H,3H)-dione]
6.86 nM	CN(C)C(=O)c1ccc([C@H]2C[C@@H]2c2cc(-c3c[nH]c(=O)[nH]c3=O)nn3ccnc23)cc1 (racemic) [Example 288, 4-((1S,2S)-2-(6-(2,4-dioxo-1,2,3,4-tetrahydropyrimidin-5-yl)imidazo[1,2-b]pyridazin-8-yl)cyclopropyl)-N,N-dimethylbenzamide]
4.75 nM	CC1(C)CN(C(=O)c2ccc([C@H]3C[C@@H]3c3cc(-c4c[nH]c(=O)[nH]c4=O)nn4ccnc34)cc2)C1 (racemic) [Example 293, 5-(8-((1S,2S)-2-(4-(3,3-dimethylazetidine-1-carbonyl)phenyl)cyclopropyl)imidazo[1,2-b]pyridazin-6-yl)pyrimidine-2,4(1H,3H)-dione]
4.45 nM	O=C(c1ccc([C@H]2C[C@@H]2c2cc(-c3c[nH]c(=O)[nH]c3=O)nn3ccnc23)cc1)N1C[C@@H](F)[C@@H](F)C1 (racemic) [Example 301, 5-(8-((1S,2S)-2-(4-((3S,4R)-3,4-difluoropyrrolidine-1-carbonyl)phenyl)cyclopropyl)imidazo[1,2-b]pyridazin-6-yl)pyrimidine-2,4(1H,3H)-dione]
3.78 nM	CC1(C)CN(C(=O)c2cccc([C@H]3C[C@@H]3c3cc(-c4c[nH]c(=O)[nH]c4=O)nn4ccnc34)c2)C1 (racemic) [Example 298, 5-(8-((1S,2S)-2-(3-(3,3-dimethylazetidine-1-carbonyl)phenyl)cyclopropyl)imidazo[1,2-b]pyridazin-6-yl)pyrimidine-2,4(1H,3H)-dione]
3.59 nM	O=C(c1cccc([C@H]2C[C@@H]2c2cc(-c3c[nH]c(=O)[nH]c3=O)nn3ccnc23)c1)N1CC(F)(F)C(F)(F)C1 (racemic) [Example 304, 5-(8-((1S,2S)-2-(3-(3,3,4,4-tetrafluoropyrrolidine-1-carbonyl)phenyl)cyclopropyl)imidazo[1,2-b]pyridazin-6-yl)pyrimidine-2,4(1H,3H)-dione]
3.25 nM	O=C(c1ccc([C@H]2C[C@@H]2c2cc(-c3c[nH]c(=O)[nH]c3=O)nn3ccnc23)cc1)N1CC(C(F)(F)F)C1 (racemic) [Example 291, 5-(8-((1S,2S)-2-(4-(3-(trifluoromethyl)azetidine-1-carbonyl)phenyl)cyclopropyl)imidazo[1,2-b]pyridazin-6-yl)pyrimidine-2,4(1H,3H)-dione]
3.08 nM	O=C(c1cccc([C@H]2C[C@@H]2c2cc(-c3c[nH]c(=O)[nH]c3=O)nn3ccnc23)c1)N1C[C@@H](F)[C@@H](F)C1 (racemic) [Example 302, 5-(8-((1S,2S)-2-(3-((3S,4R)-3,4-difluoropyrrolidine-1-carbonyl)phenyl)cyclopropyl)imidazo[1,2-b]pyridazin-6-yl)pyrimidine-2,4(1H,3H)-dione]
1.8 nM	O=C(c1cccc([C@H]2C[C@@H]2c2cc(-c3c[nH]c(=O)[nH]c3=O)nn3ccnc23)c1)N1C[C@@H](F)[C@H](F)C1 (racemic) [Example 300, 5-(8-((1S,2S)-2-(3-((3R,4R)-3,4-difluoropyrrolidine-1-carbonyl)phenyl)cyclopropyl)imidazo[1,2-b]pyridazin-6-yl)pyrimidine-2,4(1H,3H)-dione]
1.54 nM	COC(=O)c1ccc([C@H]2C[C@@H]2c2cc(-c3c[nH]c(=O)[nH]c3=O)nn3ccnc23)cc1 (racemic) [Example 281, methyl 4-((1S,2S)-2-(6-(2,4-dioxo-1,2,3,4-tetrahydropyrimidin-5-yl)imidazo[1,2-b]pyridazin-8-yl)cyclopropyl)benzoate]
1.51 nM	O=C(c1cccc([C@H]2C[C@@H]2c2cc(-c3c[nH]c(=O)[nH]c3=O)nn3ccnc23)c1)N1CC(F)(F)C1 (racemic) [Example 297, 5-(8-((1S,2S)-2-(3-(3,3-difluoroazetidine-1-carbonyl)phenyl)cyclopropyl)imidazo[1,2-b]pyridazin-6-yl)pyrimidine-2,4(1H,3H)-dione]
1.42 nM	CNC(=O)c1ccc([C@H]2C[C@@H]2c2cc(-c3c[nH]c(=O)[nH]c3=O)nn3ccnc23)cc1 (racemic) [Example 285, 4-((1S,2S)-2-(6-(2,4-dioxo-1,2,3,4-tetrahydropyrimidin-5-yl)imidazo[1,2-b]pyridazin-8-yl)cyclopropyl)-N-methylbenzamide]
1.19 nM	CNC(=O)c1cccc([C@H]2C[C@@H]2c2cc(-c3c[nH]c(=O)[nH]c3=O)nn3ccnc23)c1 (racemic) [Example 286, 3-((1S,2S)-2-(6-(2,4-dioxo-1,2,3,4-tetrahydropyrimidin-5-yl)imidazo[1,2-b]pyridazin-8-yl)cyclopropyl)-N-methylbenzamide]
1.02 nM	O=C(c1cccc([C@H]2C[C@@H]2c2cc(-c3c[nH]c(=O)[nH]c3=O)nn3ccnc23)c1)N1CCC1 (racemic) [Example 294, 5-(8-((1S,2S)-2-(3-(azetidine-1-carbonyl)phenyl)cyclopropyl)imidazo[1,2-b]pyridazin-6-yl)pyrimidine-2,4(1H,3H)-dione]
0.91 nM	O=c1[nH]cc(-c2cc([C@H]3C[C@@H]3c3ccc4ncsc4c3)c3nccn3n2)c(=O)[nH]1 (racemic) [Example 276, 5-(8-((1S,2S)-2-(benzo[d]thiazol-6-yl)cyclopropyl)imidazo[1,2-b]pyridazin-6-yl)pyrimidine-2,4(1H,3H)-dione]
